Source: PubChem BioAssay (NCI)
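All cell lines were grown in 96-well plates and treated with compound for 48 hours. The concentration for full growth arrest is given as TGI.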

Columns and labels:
Test in all cases: NCI tumour cell line growth inhibition, 48 h
[1] = tested on: NCI-H23 lung
[2] = tested on: UACC-62 melanoma
[3] = tested on: A498 renal
[4] = tested on: HOP-18 NSCLC
[5] = tested on: A549 NSCLC
[6] = tested on: DU-145 prostate
[7] = tested on: MALME-3M melanoma
[8] = tested on: COLO 205 colon
[9] = tested on: M19-MEL melanoma
[10] = tested on: SK-MEL-28 melanoma
[11] = tested on: HL-60(TB) leukemia
[12] = tested on: U251 CNS
[13] = tested on: HS 578T breast
[14] = tested on: HCT-15 colon
[15] = tested on: SK-MEL-5 melanoma
[16] = tested on: SW-620 colon
[17] = tested on: KM12 colon
[18] = tested on: SK-OV-3 ovarian
[19] = tested on: EKVX NSCLC
[20] = tested on: 786-0 renal
[21] = tested on: M14 melanoma
[22] = tested on: HT29 colon
[23] = tested on: CAKI-1 renal
[24] = tested on: LOX IMVI melanoma
[25] = tested on: NCI-H460 lung
[26] = tested on: XF 498 CNS
[27] = tested on: MOLT-4 leukemia
[28] = tested on: K-562 leukemia
[29] = tested on: TK-10 renal
[30] = tested on: OVCAR-8 ovarian
[31] = tested on: SR leukemia
[32] = tested on: UO-31 renal
[33] = tested on: SNB-75 CNS
[34] = tested on: OVCAR-4 ovarian
[35] = tested on: MCF7 breast
[36] = tested on: MDA-MB-435
[37] = tested on: SK-MEL-2 melanoma
[38] = tested on: IGROV1 ovarian
[39] = tested on: HCC-2998 colon
[40] = tested on: HCT-116 colon
[41] = tested on: SF-539 CNS
[42] = tested on: OVCAR-5 ovarian
[43] = tested on: SNB-19 CNS
[44] = tested on: HOP-92 NSCLC
[45] = tested on: T-47D breast
[46] = tested on: DLD-1 colon
[47] = tested on: SNB-78 CNS
[48] = tested on: KM20L2 colon
[49] = tested on: DMS 273 small cell lung
[50] = tested on: SF-295 CNS
[51] = tested on: SN12C renal
[52] = tested on: LXFL 529 NSCLC
[53] = tested on: ACHN renal
[54] = tested on: NCI-H226 lung
[55] = tested on: CCRF-CEM leukemia
[56] = tested on: HOP-62 NSCLC
[57] = tested on: SF-268 CNS
[58] = tested on: OVCAR-3 ovarian
[59] = tested on: NCI-H522 lung
[60] = tested on: UACC-257 melanoma
[61] = tested on: BT-549 breast
[62] = tested on: RPMI-8226 leukemia
[63] = tested on: DMS 114 small cell lung
[64] = tested on: RXF-631 renal
[65] = tested on: RXF 393 renal

SMILES: O=C(O)COc1ccc(C(=O)/C(SS/C(C(=O)c2ccc(OCC(=O)O)c(Cl)c2Cl)=C2\C=C(c3ccc(F)cc3)SS2)=C2/C=C(c3ccc(F)cc3)SS2)c(Cl)c1Cl
- TGI [1]: 33.7 µM
- TGI [2]: 23.9 µM
- TGI [3]: 77.5 µM
- TGI [4]: 43.6 µM
- TGI [5]: > 93.4 µM
- TGI [6]: > 100 µM
- TGI [7]: 77.3 µM
- TGI [8]: 25 µM
- TGI [9]: 44.6 µM
- TGI [10]: 38.8 µM
- TGI [11]: 6.03 µM
- TGI [12]: 24.7 µM
- TGI [13]: 19 µM
- TGI [14]: 28.3 µM
- TGI [15]: 51.5 µM
- TGI [16]: 36.3 µM
- TGI [17]: 32.6 µM
- TGI [18]: > 88.7 µM
- TGI [19]: > 81.4 µM
- TGI [20]: > 57 µM
- TGI [21]: 54.8 µM
- TGI [22]: 70.6 µM
- TGI [23]: > 77.9 µM
- TGI [24]: 12.9 µM
- TGI [25]: 49.1 µM
- TGI [26]: 27 µM
- TGI [27]: 31.2 µM
- TGI [28]: 32.6 µM
- TGI [29]: 99.2 µM
- TGI [30]: 55.8 µM
- TGI [31]: 13.4 µM
- TGI [32]: 36.4 µM
- TGI [33]: 27.4 µM
- TGI [34]: 40.3 µM
- TGI [35]: > 100 µM
- TGI [36]: > 100 µM
- TGI [37]: 34.7 µM
- TGI [38]: 41.7 µM
- TGI [39]: > 100 µM
- TGI [40]: 25.6 µM
- TGI [41]: 26.9 µM
- TGI [42]: 74.7 µM
- TGI [43]: 53.7 µM
- TGI [44]: 15.4 µM
- TGI [45]: 31.3 µM
- TGI [46]: > 53.7 µM
- TGI [47]: 43.1 µM
- TGI [48]: > 95.8 µM
- TGI [49]: 27.9 µM
- TGI [50]: 69.8 µM
- TGI [51]: 38.7 µM
- TGI [52]: 13.6 µM
- TGI [53]: 56 µM
- TGI [54]: 40.4 µM
- TGI [55]: 18.1 µM
- TGI [56]: > 84.8 µM
- TGI [57]: 23.1 µM
- TGI [58]: 20.7 µM
- TGI [59]: 8.44 µM
- TGI [60]: 68.8 µM
- TGI [61]: 71.5 µM
- TGI [62]: 31.5 µM
- TGI [63]: 12.7 µM

SMILES: COC12OCCN(CCO)C1=CC(=O)C1(C)N=NC(C)C12 (configuration not stated)
- TGI [1]: > 100 µM
- TGI [2]: > 100 µM
- TGI [3]: > 100 µM
- TGI [4]: > 100 µM
- TGI [5]: > 100 µM
- TGI [7]: > 100 µM
- TGI [8]: > 100 µM
- TGI [9]: > 100 µM
- TGI [10]: > 100 µM
- TGI [12]: > 100 µM
- TGI [14]: > 100 µM
- TGI [15]: > 100 µM
- TGI [16]: > 100 µM
- TGI [17]: > 100 µM
- TGI [18]: > 100 µM
- TGI [19]: > 100 µM
- TGI [20]: > 100 µM
- TGI [21]: > 100 µM
- TGI [22]: > 100 µM
- TGI [23]: > 100 µM
- TGI [24]: > 100 µM
- TGI [25]: > 100 µM
- TGI [27]: > 100 µM
- TGI [28]: > 100 µM
- TGI [29]: > 100 µM
- TGI [30]: > 100 µM
- TGI [32]: > 100 µM
- TGI [33]: > 100 µM
- TGI [64]: > 100 µM
- TGI [38]: > 100 µM
- TGI [39]: > 100 µM
- TGI [40]: > 100 µM
- TGI [41]: > 100 µM
- TGI [44]: > 100 µM
- TGI [46]: > 100 µM
- TGI [47]: > 100 µM
- TGI [49]: > 100 µM
- TGI [50]: > 100 µM
- TGI [51]: > 100 µM
- TGI [52]: > 100 µM
- TGI [53]: > 100 µM
- TGI [54]: > 100 µM
- TGI [55]: > 100 µM
- TGI [65]: > 100 µM
- TGI [58]: > 100 µM
- TGI [59]: > 100 µM
- TGI [60]: > 100 µM
- TGI [62]: > 100 µM
- TGI [63]: > 100 µM
